Measurements reported in article PMC3764405, “Synthesis and evaluation of a ^125I-labeled iminodihydroquinoline-derived tracer for imaging of voltage-gated sodium channels^” (Bioorganic & Medicinal Chemistry Letters, 2013).

Molecular target: T1, human Nav1.2 isoform (hNav1.2) (Homo sapiens, UniProt Q99250)
T1 construct: gene SCN2A
Assay: automated patch clamp, CHO cells transfected with hNav1.[…]
Format: cell-based

T1 sequence (Q99250 whole entry, canonical isoform): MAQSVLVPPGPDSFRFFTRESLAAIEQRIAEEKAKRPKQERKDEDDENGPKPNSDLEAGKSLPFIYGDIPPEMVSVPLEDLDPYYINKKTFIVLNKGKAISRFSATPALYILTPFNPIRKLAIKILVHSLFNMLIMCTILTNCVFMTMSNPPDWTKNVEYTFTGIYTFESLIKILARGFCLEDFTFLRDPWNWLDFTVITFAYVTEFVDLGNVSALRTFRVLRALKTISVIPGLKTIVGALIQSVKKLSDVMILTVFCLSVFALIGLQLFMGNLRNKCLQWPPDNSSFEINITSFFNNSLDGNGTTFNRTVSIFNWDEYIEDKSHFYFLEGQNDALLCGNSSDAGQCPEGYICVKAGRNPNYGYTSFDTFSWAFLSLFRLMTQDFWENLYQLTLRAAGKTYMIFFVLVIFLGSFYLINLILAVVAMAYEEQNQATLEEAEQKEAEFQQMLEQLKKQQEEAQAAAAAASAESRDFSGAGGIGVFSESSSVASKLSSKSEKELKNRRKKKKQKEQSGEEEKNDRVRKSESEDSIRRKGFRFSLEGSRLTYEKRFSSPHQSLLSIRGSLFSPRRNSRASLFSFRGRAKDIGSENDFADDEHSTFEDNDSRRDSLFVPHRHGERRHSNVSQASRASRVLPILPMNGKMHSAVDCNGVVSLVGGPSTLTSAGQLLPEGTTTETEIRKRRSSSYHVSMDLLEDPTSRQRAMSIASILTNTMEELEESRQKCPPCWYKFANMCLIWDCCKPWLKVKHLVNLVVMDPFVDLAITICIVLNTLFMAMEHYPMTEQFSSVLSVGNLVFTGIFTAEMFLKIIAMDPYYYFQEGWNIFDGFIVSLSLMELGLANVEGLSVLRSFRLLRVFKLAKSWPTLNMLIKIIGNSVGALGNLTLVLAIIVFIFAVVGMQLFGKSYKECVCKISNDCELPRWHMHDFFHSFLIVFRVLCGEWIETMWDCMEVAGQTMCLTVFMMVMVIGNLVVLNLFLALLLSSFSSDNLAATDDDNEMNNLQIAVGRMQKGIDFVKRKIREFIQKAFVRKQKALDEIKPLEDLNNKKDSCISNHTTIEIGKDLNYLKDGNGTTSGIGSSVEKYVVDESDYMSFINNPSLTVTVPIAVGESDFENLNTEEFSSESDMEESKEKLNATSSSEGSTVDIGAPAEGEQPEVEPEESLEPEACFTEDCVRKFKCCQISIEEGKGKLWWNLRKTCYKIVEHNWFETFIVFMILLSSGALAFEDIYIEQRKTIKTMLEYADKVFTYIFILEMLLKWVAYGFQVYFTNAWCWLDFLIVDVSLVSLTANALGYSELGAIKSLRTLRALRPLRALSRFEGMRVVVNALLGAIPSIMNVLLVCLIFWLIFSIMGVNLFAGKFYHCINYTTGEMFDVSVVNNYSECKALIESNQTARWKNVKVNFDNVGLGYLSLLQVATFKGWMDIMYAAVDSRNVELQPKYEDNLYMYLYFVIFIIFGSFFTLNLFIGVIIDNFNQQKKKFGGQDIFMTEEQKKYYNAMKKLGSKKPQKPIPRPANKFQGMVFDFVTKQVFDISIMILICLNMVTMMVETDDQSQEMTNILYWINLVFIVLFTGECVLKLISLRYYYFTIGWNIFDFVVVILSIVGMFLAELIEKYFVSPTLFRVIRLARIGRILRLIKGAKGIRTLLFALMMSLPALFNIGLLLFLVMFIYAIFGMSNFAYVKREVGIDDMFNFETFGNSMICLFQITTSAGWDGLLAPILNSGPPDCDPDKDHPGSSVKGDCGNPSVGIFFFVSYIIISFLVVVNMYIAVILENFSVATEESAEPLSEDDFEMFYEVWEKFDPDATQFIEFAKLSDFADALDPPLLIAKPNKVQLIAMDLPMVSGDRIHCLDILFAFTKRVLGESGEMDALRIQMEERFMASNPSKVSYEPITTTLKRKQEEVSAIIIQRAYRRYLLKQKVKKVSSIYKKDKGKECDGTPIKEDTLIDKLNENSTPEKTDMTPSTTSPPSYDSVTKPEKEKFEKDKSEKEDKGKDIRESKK

SMILES	IC50
CCCCCN=c1ccn(Cc2ccccc2)c2cc(I)ccc12 [compound 10, 10]	1.5 ± 0.5 µM
CCCCCN=c1ccn(Cc2ccccc2)c2cc(Cl)ccc12 [WIN17317-3]	2.2 ± 1.2 µM
